Measurements from ChEMBL document CHEMBL1201862, “PubChem BioAssay data set” (2004).
Activity calls are given as the source filed them.

Key:
[1] = HEK-293T cell viability reduction – luminescence, B-cell screen hits, cytotoxicity control for BCR NF-kB inhibitor project, dose response (AID 489021); format: functional, cell-based;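 further: HEK-293T cells carrying an NF-kB luciferase reporter; cells exposed to compound for about 14 hours before viability readout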
Bcl-2-like protein 10 = molecular target: T1, Bcl-2-like protein 10 (Homo sapiens, UniProt Q9HD36); experiment: Bcl-B/TR3 peptide binding disruption – biochemical, fluorescence polarization, FITC-TR3 peptide, selectivity assay for Bfl-1 inhibitor project, primary screen (AID 748);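 further: fluorescence polarization from a fluorescein-labelled TR3 peptide binding purified Bcl-B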
T1 sequence (Q9HD36 whole entry): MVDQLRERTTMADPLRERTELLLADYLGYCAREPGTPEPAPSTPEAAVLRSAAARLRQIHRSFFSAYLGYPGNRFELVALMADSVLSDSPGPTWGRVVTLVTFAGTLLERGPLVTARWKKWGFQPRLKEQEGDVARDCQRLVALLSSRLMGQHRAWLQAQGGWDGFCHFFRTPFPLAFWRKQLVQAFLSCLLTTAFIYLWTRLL

[2] = molecular target: Beta-2 adrenergic receptor (Homo sapiens, UniProt P07550); experiment: ADRB2 activation measured by internalization – cell-based, FAP fluorogen, flow cytometry, cherry pick 1, dose response (AID 588763); format: functional
Beta-2 adrenergic receptor, sequence (P07550 whole entry): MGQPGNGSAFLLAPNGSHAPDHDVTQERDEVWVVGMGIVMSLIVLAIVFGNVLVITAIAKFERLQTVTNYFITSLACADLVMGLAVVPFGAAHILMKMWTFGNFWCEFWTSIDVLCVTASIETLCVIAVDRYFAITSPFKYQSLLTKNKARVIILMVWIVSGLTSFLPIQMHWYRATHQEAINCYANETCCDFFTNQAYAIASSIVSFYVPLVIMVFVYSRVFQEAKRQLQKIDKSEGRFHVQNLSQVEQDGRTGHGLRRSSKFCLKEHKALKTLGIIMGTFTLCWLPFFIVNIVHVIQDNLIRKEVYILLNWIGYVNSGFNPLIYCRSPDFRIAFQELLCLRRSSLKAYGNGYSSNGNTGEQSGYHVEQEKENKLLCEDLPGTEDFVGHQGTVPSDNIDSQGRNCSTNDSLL

HEK293 [3] = experiment: inhibition of NOD1-driven NF-kB reporter – cell-based, luminescence, uHTS, primary screen (AID 1578); format: functional; details: Homo sapiens
HEK293 [4] = experiment: cells; format: functional, cell-based; details: Homo sapiens
HEK293 [5] = experiment: cells; format: functional, cell-based; details: Homo sapiens; remark: listed apart in the source
[6] = molecular target: T2, Nucleotide-binding oligomerization domain-containing protein 2 (Homo sapiens, UniProt Q9HC29); experiment: inhibition of NOD2-driven NF-kB reporter – cell-based, luminescence, uHTS, HEK293 (AID 1566); format: functional
T2 sequence (Q9HC29 whole entry, the tested form may be a part): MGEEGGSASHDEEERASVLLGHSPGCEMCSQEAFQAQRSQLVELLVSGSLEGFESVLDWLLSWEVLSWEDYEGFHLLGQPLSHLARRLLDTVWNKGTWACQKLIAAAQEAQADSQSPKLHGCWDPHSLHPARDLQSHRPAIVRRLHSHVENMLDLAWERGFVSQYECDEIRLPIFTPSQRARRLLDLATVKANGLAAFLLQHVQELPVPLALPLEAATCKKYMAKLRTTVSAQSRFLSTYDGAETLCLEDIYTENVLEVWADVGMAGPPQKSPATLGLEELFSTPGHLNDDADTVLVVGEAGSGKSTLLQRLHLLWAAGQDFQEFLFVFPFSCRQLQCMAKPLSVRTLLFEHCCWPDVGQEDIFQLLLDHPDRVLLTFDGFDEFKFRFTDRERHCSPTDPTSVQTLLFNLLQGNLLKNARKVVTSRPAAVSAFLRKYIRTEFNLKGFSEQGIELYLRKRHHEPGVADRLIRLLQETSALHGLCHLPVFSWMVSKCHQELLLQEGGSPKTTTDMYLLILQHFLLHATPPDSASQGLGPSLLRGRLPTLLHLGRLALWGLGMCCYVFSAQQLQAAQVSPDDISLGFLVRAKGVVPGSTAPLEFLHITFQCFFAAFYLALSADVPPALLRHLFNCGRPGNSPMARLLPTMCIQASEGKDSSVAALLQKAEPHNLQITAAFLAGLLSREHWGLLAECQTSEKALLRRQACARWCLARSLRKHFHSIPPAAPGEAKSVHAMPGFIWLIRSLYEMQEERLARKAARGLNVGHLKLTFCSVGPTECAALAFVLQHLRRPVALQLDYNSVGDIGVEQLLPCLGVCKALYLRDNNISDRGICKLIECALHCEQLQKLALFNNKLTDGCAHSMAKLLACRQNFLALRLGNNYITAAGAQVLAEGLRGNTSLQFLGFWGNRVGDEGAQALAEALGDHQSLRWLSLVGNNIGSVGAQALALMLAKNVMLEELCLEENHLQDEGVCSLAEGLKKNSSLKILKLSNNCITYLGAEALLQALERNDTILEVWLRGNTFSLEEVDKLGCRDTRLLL

HEK293 [7] = experiment: NOD2 signaling inhibitors in MDP-stimulated cells, cell-based, uHTS, luminescence (AID 2001); format: functional; details: Homo sapiens
[8] = Trypanosoma cruzi growth suppression in host cells – NIH3T3 host cells, beta-gal luminescence, confirmation (AID 2044); format: functional, cell-based;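 further: intracellular parasites grown in NIH/3T3 mouse fibroblasts as host cells; luminescent beta-galactosidase reporter signal from transgenic T. cruzi replicating inside host cells; inhibitors lower the luminescence signal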
HEK293 [9] = experiment: cells; format: functional, cell-based; details: Homo sapiens; remark: listed apart in the source
[10] = NIH3T3 cell viability loss – ATP luminescence, mouse fibroblasts, counter-screen, dose response (AID 2010); format: functional, cell-based;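 further: cells exposed to compound for about 90 hours before reading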
Tumor necrosis factor = Tumor necrosis factor (Homo sapiens, UniProt P01375); experiment: analog potency on TNFa NF-kB signaling – cell-based, revised, SAR follow-up (AID 2337); format: functional
Tumor necrosis factor, sequence (P01375 whole entry, the tested form may be a part): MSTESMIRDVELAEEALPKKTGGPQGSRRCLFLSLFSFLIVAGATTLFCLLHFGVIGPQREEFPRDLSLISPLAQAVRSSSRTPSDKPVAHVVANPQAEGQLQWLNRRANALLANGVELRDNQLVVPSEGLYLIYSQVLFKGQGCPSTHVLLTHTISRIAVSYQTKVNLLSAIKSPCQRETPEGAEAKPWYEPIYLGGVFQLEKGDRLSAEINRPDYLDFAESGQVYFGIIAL

[11] = molecular target: T3, Nucleotide-binding oligomerization domain-containing protein 1 (Homo sapiens, UniProt Q9Y239); experiment: blockers of NOD1 pathway activity – revised, SAR follow-up (AID 2333); format: functional
T3 sequence (Q9Y239 whole entry): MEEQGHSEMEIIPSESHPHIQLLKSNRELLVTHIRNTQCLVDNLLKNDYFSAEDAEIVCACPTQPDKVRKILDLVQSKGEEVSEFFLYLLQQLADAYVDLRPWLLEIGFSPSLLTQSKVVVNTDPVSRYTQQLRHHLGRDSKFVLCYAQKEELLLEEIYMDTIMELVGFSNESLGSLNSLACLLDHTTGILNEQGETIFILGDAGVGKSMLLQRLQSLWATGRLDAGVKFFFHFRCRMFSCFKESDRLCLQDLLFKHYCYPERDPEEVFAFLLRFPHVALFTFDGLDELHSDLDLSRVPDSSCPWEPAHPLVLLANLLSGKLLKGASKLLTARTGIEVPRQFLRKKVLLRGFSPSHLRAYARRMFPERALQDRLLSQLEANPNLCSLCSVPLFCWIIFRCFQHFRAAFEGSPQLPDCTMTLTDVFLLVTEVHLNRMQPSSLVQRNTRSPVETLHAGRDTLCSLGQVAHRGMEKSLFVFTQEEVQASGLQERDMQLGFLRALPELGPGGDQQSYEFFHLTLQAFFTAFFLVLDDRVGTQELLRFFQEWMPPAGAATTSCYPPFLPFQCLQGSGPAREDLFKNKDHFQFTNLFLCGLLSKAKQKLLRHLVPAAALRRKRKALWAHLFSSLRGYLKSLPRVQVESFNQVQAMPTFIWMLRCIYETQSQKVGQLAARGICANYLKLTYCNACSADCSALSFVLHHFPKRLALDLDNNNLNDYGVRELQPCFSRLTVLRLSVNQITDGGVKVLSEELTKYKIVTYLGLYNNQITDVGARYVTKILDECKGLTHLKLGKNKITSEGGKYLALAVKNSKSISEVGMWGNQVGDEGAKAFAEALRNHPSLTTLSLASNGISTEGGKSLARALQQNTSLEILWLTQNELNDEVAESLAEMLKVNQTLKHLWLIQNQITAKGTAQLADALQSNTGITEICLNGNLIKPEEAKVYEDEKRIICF

[12] = molecular target: T2, Nucleotide-binding oligomerization domain-containing protein 2; experiment: PubChem AID 2334; format: functional
Vero = experiment: cells; format: functional, cell-based; details: Chlorocebus sabaeus
HEK293 [13] = experiment: cells; details: Homo sapiens
Beta-galactosidase = Beta-galactosidase (Escherichia coli, UniProt Q8VNN2); experiment: detection-enzyme interference by beta-gal modulators – biochemical, E. coli enzyme, set 3, artefact control for CCR6 antagonist project, dose response (AID 504712); format: functional
Beta-galactosidase, sequence (Q8VNN2 whole entry): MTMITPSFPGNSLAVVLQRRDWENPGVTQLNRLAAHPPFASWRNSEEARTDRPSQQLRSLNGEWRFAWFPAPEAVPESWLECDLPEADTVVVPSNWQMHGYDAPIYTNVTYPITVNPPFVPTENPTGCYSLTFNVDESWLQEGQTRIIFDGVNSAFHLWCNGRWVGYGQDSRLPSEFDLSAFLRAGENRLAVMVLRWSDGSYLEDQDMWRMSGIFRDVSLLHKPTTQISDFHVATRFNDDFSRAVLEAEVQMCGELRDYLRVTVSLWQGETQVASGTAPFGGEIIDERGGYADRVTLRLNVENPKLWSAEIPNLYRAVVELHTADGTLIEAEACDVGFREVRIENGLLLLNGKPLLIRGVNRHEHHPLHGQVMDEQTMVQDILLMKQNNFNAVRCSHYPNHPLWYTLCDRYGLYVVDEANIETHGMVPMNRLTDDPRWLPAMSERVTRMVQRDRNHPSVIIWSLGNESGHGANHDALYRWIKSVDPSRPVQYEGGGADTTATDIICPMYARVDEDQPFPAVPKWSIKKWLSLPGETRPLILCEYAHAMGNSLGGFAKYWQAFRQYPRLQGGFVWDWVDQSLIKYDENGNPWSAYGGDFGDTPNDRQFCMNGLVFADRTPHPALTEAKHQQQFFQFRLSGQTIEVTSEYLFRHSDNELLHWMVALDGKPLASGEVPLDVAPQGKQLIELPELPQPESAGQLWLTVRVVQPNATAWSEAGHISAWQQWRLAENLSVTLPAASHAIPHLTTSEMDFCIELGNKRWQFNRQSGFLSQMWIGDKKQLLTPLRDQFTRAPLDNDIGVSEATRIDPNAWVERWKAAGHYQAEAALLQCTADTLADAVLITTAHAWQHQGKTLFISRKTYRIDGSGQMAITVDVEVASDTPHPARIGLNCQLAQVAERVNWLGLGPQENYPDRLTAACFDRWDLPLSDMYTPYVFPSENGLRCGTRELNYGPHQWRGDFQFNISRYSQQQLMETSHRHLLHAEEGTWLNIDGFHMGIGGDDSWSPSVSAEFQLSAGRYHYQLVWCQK

Hexokinase HKDC1 = molecular target: T4, Hexokinase HKDC1 (Homo sapiens, UniProt Q2TB90); experiment: inhibition of HKDC1 glucose phosphorylation – biochemical, W721R variant, dose response (AID 504729); format: functional
T4 sequence (Q2TB90 whole entry): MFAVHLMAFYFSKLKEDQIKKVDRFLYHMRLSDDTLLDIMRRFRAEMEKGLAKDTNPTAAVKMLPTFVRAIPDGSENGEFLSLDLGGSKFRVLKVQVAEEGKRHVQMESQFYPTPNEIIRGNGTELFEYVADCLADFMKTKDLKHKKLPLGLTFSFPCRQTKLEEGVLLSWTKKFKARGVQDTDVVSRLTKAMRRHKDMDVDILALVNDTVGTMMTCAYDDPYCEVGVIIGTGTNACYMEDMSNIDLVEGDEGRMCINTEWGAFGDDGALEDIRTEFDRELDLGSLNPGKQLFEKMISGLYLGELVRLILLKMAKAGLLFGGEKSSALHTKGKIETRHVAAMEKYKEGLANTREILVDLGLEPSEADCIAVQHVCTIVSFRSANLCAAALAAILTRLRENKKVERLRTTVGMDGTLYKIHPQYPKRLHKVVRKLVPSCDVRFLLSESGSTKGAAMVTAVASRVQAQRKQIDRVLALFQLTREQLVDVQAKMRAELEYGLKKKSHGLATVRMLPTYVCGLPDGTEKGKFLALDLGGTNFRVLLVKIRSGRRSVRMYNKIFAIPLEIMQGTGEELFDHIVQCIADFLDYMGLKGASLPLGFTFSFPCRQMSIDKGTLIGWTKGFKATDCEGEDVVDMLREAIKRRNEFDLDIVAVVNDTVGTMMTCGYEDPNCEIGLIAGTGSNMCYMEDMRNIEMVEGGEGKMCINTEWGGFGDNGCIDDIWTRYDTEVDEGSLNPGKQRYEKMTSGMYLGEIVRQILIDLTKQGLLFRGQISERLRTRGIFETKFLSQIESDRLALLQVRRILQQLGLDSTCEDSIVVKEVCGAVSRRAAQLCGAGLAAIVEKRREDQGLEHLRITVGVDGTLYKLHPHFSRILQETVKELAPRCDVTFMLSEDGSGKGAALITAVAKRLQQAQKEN

Bcl-2-related protein A1 = molecular target: T5, Bcl-2-related protein A1 (Mus musculus, UniProt Q07440); format: functional;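 further: confirmatory dose–response counterscreen on Bfl-1, used to check hits from a UBC13 polyubiquitin inhibitor campaign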
T5 sequence (Q07440 whole entry): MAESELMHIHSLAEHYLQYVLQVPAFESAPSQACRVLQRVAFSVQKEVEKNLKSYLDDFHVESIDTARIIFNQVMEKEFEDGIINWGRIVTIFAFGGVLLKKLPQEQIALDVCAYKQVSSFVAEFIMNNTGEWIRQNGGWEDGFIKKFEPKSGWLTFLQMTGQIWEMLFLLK

[14] = molecular target: T6, Ubiquitin-conjugating enzyme E2 N (Homo sapiens, UniProt P61088); format: functional
T6 sequence (P61088 whole entry): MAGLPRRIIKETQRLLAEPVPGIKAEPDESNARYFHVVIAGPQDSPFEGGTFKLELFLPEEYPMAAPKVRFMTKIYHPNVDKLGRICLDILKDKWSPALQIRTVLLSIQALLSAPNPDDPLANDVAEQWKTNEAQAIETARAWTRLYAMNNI

[15] = molecular target: Neurotensin receptor type 1 (Homo sapiens, UniProt P30989); format: functional;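 further: Image-based confirmatory dose-response assay measuring agonist activity at NTR1; NTR1-expressing U2OS osteosarcoma cells imaged for beta-arrestin GFP spot formation; agonist potency where compounds increase beta-arrestin recruitment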
Neurotensin receptor type 1, sequence (P30989 whole entry): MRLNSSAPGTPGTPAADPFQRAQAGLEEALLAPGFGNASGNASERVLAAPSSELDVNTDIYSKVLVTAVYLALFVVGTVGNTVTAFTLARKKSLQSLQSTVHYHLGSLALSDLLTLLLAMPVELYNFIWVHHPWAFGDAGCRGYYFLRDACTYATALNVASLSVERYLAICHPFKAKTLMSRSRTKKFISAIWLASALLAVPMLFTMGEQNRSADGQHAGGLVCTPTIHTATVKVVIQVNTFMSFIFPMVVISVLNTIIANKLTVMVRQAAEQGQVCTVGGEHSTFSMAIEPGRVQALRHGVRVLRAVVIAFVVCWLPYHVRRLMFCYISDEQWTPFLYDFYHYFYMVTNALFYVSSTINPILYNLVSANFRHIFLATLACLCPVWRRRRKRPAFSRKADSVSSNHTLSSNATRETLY

[16] = molecular target: T6, Ubiquitin-conjugating enzyme E2 N; format: functional; remark: listed apart in the source
[17] = A549 cell cytotoxicity, dose response, cytotoxicity control, plate reader, cherry-pick, antagonist series (AID 743412); format: functional, cell-based
[18] = toxicity toward HepG2 liver cells – cell-based, plate reader, cherry-pick, antagonist series, cytotoxicity control, dose response (AID 743416); format: functional
[19] = blockers of bursicon-stimulated LGR2 cAMP reporter – cell-based, HEK293, CRE-luciferase reporter, cherry pick, set 2, dose response (AID 743343); format: functional;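 further: transfected cells were stimulated with diluted bursicon conditioned medium after compound addition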
[20] = blockade of melanocortin 4 receptor signaling – cell-based, plate reader, cherry pick, counter-screen for LGR2 antagonist project, dose response (AID 743444); format: functional;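 further: transfected HEK 293 cells stimulated with alpha-MSH peptide; potency of inhibitors of the alpha-MSH evoked signal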
[21] = viability loss in HEK293 cells – cell-based, plate reader, cherry-picked samples, cytotoxicity control, dose response (AID 743446); format: functional
[22] = Luminescence Cell-Based Dose Retest to Confirm Inhibitors of Cancer Stem Cells. [Related pubchem assays (depositor defined):AID2717, AID2721]; format: functional; details: Homo sapiens
[23] = reduction of Shn3 3'UTR-driven luciferase in osteoblasts – cell-based, Clone20 osteoblasts, firefly luciferase, cherry-picked, dose response (AID 624132); format: functional;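 further: firefly luciferase luminescence from reporter carrying the Shn3 3'UTR in osteoblasts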
[24] = loss of viability in HepG2 cells – cell-based, CellTiter-Glo, cherry-picked, cytotoxicity control for Shn3 inhibitor project, dose response (AID 624134); format: functional
[25] = non-specific 3'UTR reporter inhibition in Clone20-Shn3RL – cell-based, Renilla luciferase, cherry-picked, counter-screen for Shn3 inhibitor project, dose response (AID 624133); format: functional
[26] = luciferase reporter signal suppression in cells – H4 neuroglioma cells, luminescence, dose response (AID 1990); format: functional, cell-based
[27] = Luminescence Cell-Based Dose Response HTS to Identify Inhibitors of 5'UTR Stem-Loop Driven Prion Protein mRNA Translation in H4 Neuroglioblastoma Cells. [Related pubchem assays: 1827 (Project Summary), 1813 (Primary HTS)]; format: functional
[28] = alpha-synuclein stem-loop luciferase translation blockers – H4 neuroglioma cells, luminescence, confirmation (AID 1988); format: functional, cell-based
[29] = THP-1 cell cytotoxicity, dose response, cytotoxicity control for non-replicating M. tuberculosis project (AID 489025); format: functional
[30] = HepG2 cell cytotoxicity, dose response, cytotoxicity control for non-replicating M. tuberculosis project (AID 489018); format: functional; details: Mycobacterium tuberculosis
[31] = Vero E6 cell cytotoxicity, dose response, cytotoxicity control for non-replicating M. tuberculosis project, secondary assay (AID 492998); format: functional, VeroE6; details: Vero C1008
cells = format: functional

COc1ccc(-c2ccc(OC)c([C@H]3[C@H]4C=CC[C@@H](C)[C@@H]4C(=O)N3Cc3ccccc3)c2)cc1
inactive: IC50 [1] > 80 µM

O=C(CCCCCn1c(=S)[nH]c2ccccc2c1=O)NCc1ccc2c(c1)OCO2
inactive: IC50 (Bcl-2-like protein 10) > 100 µM
active: EC50 [2] 0.0077 µM

Cc1ccc2c(c1)CCCN2S(=O)(=O)c1cccc(C(=O)Nc2ccccc2C(=O)O)c1
inactive: IC50 (HEK293 [4]) > 20 µM | IC50 (HEK293 [5]) > 20 µM | IC50 (HEK293 [7]) 15.9 µM | IC50 (HEK293 [9]) > 20 µM | IC50 (HEK293 [13]) > 20 µM
active: EC50 (HEK293 [3]) 9.32 µM | EC50 [6] 4.45 µM | EC50 [8] 4.95 µM | EC50 [10] 4.22 µM | IC50 (Tumor necrosis factor) 7.52 µM | IC50 [11] 9.05 µM | IC50 [12] 12.6 µM | IC50 (Vero) > 25 µM

COC(=O)c1ccc(CCc2cc(O)c(Br)cc2O)cc1
active: IC50 (Hexokinase HKDC1) 6.54 µM
inactive: IC50 (Beta-galactosidase) > 66.6 µM

CCOC(=O)/C(=C\c1cccc(O)c1)c1nc(O)c2c(C)c(C)sc2n1
active: IC50 [14] 16.4 µM | EC50 [15] 6.59 µM | AC50 [17] 20.3 µM | AC50 [18] 13.5 µM | AC50 [19] 12.9 µM | AC50 [20] 24.5 µM | AC50 [21] 22.8 µM
inactive: IC50 (Bcl-2-related protein A1) > 20 µM | IC50 [16] > 20 µM

Cn1nnnc1Sc1ncnc2scc(Br)c12
inactive: IC50 [1] > 80 µM
active: AC50 [22] 2.12 µM | AC50 [23] 6.51 µM | AC50 [24] 39 µM | AC50 [25] 12.5 µM

CCCCCn1c(=O)c(C(=O)Nc2ccccc2S(N)(=O)=O)c(O)c2ccccc21
> 30 µM (not active): EC50 [10]
> 120 µM (not active): EC50 [26] | EC50 [27]
active: EC50 (HEK293 [3]) 6.17 µM | EC50 [28] 9.08 µM | EC50 [6] 5.7 µM | IC50 (HEK293 [7]) 8.2 µM | EC50 [8] 2.07 µM | IC50 (Tumor necrosis factor) 3.44 µM | IC50 [11] 5.88 µM | IC50 [12] 6.92 µM
inactive: IC50 (HEK293 [4]) > 20 µM | IC50 (HEK293 [5]) > 20 µM | IC50 (HEK293 [9]) > 20 µM | IC50 (HEK293 [13]) > 20 µM

COc1cc(CNCCc2c[nH]c3ccccc23)ccc1OCc1ccc(F)cc1
active: CC50 [29] 12 µM | AC50 [22] 5 µM | CC50 [30] 8 µM | CC50 [31] 11.3 µM | IC50 (cells) 10.7 µM
inactive: IC50 (Bcl-2-like protein 10) > 100 µM | EC50 [2] 36.7 µM
